target: T1, KDM5A (Homo sapiens, UniProt P29375); test: KDM5 enzyme assay, KDM5A HTRF (Example 463); format: biochemical; details: not given
T1 construct: Full length KDM5A enzyme was expressed and purified inhouse; made in house
T1 sequence (P29375 whole entry): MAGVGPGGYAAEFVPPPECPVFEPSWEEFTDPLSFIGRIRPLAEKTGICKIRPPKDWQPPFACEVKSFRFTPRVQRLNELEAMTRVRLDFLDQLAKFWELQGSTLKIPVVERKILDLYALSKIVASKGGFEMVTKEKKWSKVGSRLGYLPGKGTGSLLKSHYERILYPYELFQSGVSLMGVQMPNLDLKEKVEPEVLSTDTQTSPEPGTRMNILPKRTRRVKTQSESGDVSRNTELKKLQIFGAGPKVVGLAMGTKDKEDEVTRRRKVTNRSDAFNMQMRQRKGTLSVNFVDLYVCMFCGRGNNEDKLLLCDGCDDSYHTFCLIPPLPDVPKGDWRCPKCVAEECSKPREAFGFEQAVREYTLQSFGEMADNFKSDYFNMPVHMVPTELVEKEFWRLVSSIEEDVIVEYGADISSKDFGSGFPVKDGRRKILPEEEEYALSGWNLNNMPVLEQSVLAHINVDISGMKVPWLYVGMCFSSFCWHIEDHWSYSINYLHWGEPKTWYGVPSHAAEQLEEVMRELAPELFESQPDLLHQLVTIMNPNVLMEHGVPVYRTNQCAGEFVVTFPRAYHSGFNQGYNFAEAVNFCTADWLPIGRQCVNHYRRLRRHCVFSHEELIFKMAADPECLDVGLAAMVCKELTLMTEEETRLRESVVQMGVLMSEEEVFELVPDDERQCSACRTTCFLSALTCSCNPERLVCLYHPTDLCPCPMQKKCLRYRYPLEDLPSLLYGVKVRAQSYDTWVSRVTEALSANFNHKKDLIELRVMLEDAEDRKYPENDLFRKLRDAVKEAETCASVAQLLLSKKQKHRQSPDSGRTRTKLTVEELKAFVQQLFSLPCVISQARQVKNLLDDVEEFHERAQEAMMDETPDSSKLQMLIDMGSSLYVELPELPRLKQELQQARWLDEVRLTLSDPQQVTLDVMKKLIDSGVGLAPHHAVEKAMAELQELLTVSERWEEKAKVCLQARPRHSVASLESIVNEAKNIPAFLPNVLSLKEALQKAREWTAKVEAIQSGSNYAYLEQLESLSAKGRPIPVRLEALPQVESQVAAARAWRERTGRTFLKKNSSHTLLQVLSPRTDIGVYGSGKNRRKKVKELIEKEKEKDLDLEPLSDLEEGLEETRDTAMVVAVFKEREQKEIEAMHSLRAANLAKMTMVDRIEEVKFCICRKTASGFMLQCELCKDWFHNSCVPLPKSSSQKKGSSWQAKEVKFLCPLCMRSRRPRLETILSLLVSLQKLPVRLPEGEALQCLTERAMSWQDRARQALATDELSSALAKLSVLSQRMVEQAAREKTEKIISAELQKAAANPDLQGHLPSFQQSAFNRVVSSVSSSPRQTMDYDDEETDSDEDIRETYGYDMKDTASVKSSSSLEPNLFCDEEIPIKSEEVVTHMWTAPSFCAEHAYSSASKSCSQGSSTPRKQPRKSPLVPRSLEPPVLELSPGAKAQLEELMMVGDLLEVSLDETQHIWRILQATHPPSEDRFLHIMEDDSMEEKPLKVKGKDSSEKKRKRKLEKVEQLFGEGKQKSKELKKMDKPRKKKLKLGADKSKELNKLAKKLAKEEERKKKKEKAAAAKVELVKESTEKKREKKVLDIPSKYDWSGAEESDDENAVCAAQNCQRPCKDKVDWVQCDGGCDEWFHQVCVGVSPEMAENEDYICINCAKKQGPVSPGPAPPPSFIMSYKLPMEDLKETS

Point of comparison: `CC(C)c1c(-c2ccc(OC(F)(F)F)cc2)[nH]c2c(C#N)cnn2c1=O` [Example 257], IC50 37 nM. Against it:
- C=C(C)c1c(-c2ccccc2)[nH]c2c(C#N)cnn2c1=O [Example 224] — within 1.5-fold, 25 nM
- COc1cc(-c2[nH]c3c(C#N)cnn3c(=O)c2C(C)C)ccn1 [Example 277] — within 1.5-fold, 32 nM

same assay, conditions: compounds of Examples 1-432; read-out: Example 463 Assay KDM5A HTRF IC50

Point of comparison: `CC(C)c1c(-c2cnn(C3CCOCC3)c2)[nH]c2c(C#N)cnn2c1=O` [Example 254], IC50 33 nM. Against it:
- C=CCc1c(-c2ccccc2)[nH]c2c(C#N)cnn2c1=O [Example 223] — 3.7-fold lower, 9 nM
- CC#CCc1c(-c2ccccc2)[nH]c2c(C#N)cnn2c1=O [Example 225] — 160-fold higher, 5400 nM
- Cn1c(-c2ccccc2)c(C2CC2)c(=O)n2ncc(C#N)c12 [Example 226] — 11-fold higher, 370 nM
- CCc1c(-c2cccc(-c3cnn(C)c3)c2)[nH]c2c(C#N)cnn2c1=O [Example 227] — 2.5-fold lower, 13 nM
- CCc1c(-c2cccc(-c3cnn(C(C)C)c3)c2)[nH]c2c(C#N)cnn2c1=O [Example 228] — within 1.5-fold, 23 nM
- Cn1c(-c2ccccc2)c(-c2ccncc2)c(=O)n2ncc(C#N)c12 [Example 229] — 290-fold higher, 9600 nM
- CCc1c(-c2ccc(-c3ccccc3)cc2)[nH]c2c(C#N)cnn2c1=O [Example 230] — 3.7-fold lower, 9 nM
- C/C=C/Cc1c(-c2ccccc2)[nH]c2c(C#N)cnn2c1=O [Example 231] — 5.2-fold higher, 170 nM
- CCc1c(-c2ccc(Nc3ccc(F)cc3)cc2)[nH]c2c(C#N)cnn2c1=O [Example 232] — 1.7-fold lower, 19 nM
- CCc1c(-c2cccc(NC(=O)OC(C)(C)C)c2)[nH]c2c(C#N)cnn2c1=O [Example 233] — 1.6-fold lower, 20 nM
- N#Cc1cnn2c(=O)c(I)c(-c3ccccc3)[nH]c12 [Example 234] — 2.2-fold lower, 15 nM
- C#CC(C)c1c(-c2ccccc2)[nH]c2c(C#N)cnn2c1=O (centres unmarked) [Example 235] — 2.4-fold lower, 14 nM
- CCC(C)c1c(-c2ccccc2)[nH]c2c(C#N)cnn2c1=O (centres unmarked) [Example 236] — 1.8-fold lower, 18 nM
- CC(=O)N1CC=C(c2[nH]c3c(C#N)cnn3c(=O)c2C(C)C)CC1 [Example 237] — 2.4-fold higher, 78 nM
- CCC(=O)N1CC=C(c2[nH]c3c(C#N)cnn3c(=O)c2C(C)C)CC1 [Example 238] — within 1.5-fold, 49 nM
- C=CC(=O)N1CC=C(c2[nH]c3c(C#N)cnn3c(=O)c2C(C)C)CC1 [Example 239] — 1.6-fold lower, 21 nM
- CC(C)c1c(C2=CCN(C)CC2)[nH]c2c(C#N)cnn2c1=O [Example 240] — 1.5-fold higher, 50 nM
- Cc1nc(Cn2cc(-c3[nH]c4c(C#N)cnn4c(=O)c3C(C)C)cn2)cs1 [Example 241] — 2.5-fold lower, 13 nM
- CC(=O)NCCn1cc(-c2[nH]c3c(C#N)cnn3c(=O)c2C(C)C)cn1 [Example 242] — within 1.5-fold, 27 nM
- CC(C)c1c(-c2cc(Cl)cc(Cl)c2)[nH]c2c(C#N)cnn2c1=O [Example 243] — 1.6-fold lower, 20 nM
- CC(C)c1c(-c2ccc(S(C)(=O)=O)cc2F)[nH]c2c(C#N)cnn2c1=O [Example 244] — 1.6-fold lower, 21 nM
- CCC(C)(C)n1cc(-c2[nH]c3c(C#N)cnn3c(=O)c2C(C)C)cn1 [Example 245] — within 1.5-fold, 46 nM
- CC(C)c1c(-c2ccc(F)c(Cl)c2)[nH]c2c(C#N)cnn2c1=O [Example 246] — 1.5-fold lower, 22 nM
- CC(C)c1c(-c2cccc(CCN3CCOCC3)c2)[nH]c2c(C#N)cnn2c1=O [Example 247] — 2.2-fold lower, 15 nM
- CC(C)c1c(-c2cccc(CCN(C)C)c2)[nH]c2c(C#N)cnn2c1=O [Example 248] — 2.1-fold higher, 69 nM
- CC(CO)c1c(-c2ccccc2)[nH]c2c(C#N)cnn2c1=O (centres unmarked) [Example 249] — within 1.5-fold, 30 nM
- CC(=O)NCCCCc1c(-c2ccccc2)[nH]c2c(C#N)cnn2c1=O [Example 250] — 170-fold higher, 5700 nM
- CC(=O)NCCCc1c(-c2ccccc2)[nH]c2c(C#N)cnn2c1=O [Example 251] — 240-fold higher, 8000 nM
- N#Cc1cnn2c(=O)c(CCCCN)c(-c3ccccc3)[nH]c12 [Example 252] — 230-fold higher, 7630 nM
- CC(C)c1c(-c2cnn(C(C)c3cscn3)c2)[nH]c2c(C#N)cnn2c1=O (centres unmarked) [Example 253] — 2.5-fold lower, 13 nM
- COc1cc(-c2[nH]c3c(C#N)cnn3c(=O)c2C(C)C)ccc1C(F)(F)F [Example 255] — within 1.5-fold, 35 nM
- COC(=O)c1cc(-c2[nH]c3c(C#N)cnn3c(=O)c2C(C)C)ccc1Cl [Example 256] — 2.2-fold lower, 15 nM
- Cc1cc(-c2[nH]c3c(C#N)cnn3c(=O)c2C(C)C)ccc1OC(F)(F)F [Example 258] — within 1.5-fold, 44 nM
- CC(C)c1c(-c2ccc(C3CC3)c(C(F)(F)F)c2)[nH]c2c(C#N)cnn2c1=O [Example 259] — within 1.5-fold, 43 nM
- CC(C)c1c(-c2ccc3c(c2)CC(C)(C)O3)[nH]c2c(C#N)cnn2c1=O [Example 260] — within 1.5-fold, 36 nM
- COc1cc(OC)cc(-c2[nH]c3c(C#N)cnn3c(=O)c2C(C)C)c1 [Example 261] — within 1.5-fold, 31 nM
- CC(C)c1c(-c2ccc(F)c(F)c2)[nH]c2c(C#N)cnn2c1=O [Example 262] — 1.6-fold lower, 21 nM
- CC(C)c1c(-c2ccc(-c3ccccc3)cc2)[nH]c2c(C#N)cnn2c1=O [Example 263] — within 1.5-fold, 28 nM
- CC(C)c1c(-c2cc(F)cc(Cl)c2)[nH]c2c(C#N)cnn2c1=O [Example 264] — 1.6-fold lower, 21 nM
- CC(C)c1c(-c2cc(C(F)(F)F)cc(C(F)(F)F)c2)[nH]c2c(C#N)cnn2c1=O [Example 265] — within 1.5-fold, 40 nM
- COc1cc(F)cc(-c2[nH]c3c(C#N)cnn3c(=O)c2C(C)C)c1 [Example 266] — within 1.5-fold, 29 nM
- CC(C)c1c(-c2cccc(C(N)=O)c2)[nH]c2c(C#N)cnn2c1=O [Example 267] — 3.4-fold lower, 9.8 nM
- CC(C)c1c(-c2ccc(OCC3CC3)cc2)[nH]c2c(C#N)cnn2c1=O [Example 268] — within 1.5-fold, 23 nM
- CC(C)c1c(-c2cc(F)cc(NC(=O)OCc3ccccc3)c2)[nH]c2c(C#N)cnn2c1=O [Example 269] — 1.7-fold lower, 19 nM
- CC(C)c1c(-c2cccc(-n3cccn3)c2)[nH]c2c(C#N)cnn2c1=O [Example 270] — 2.5-fold lower, 13 nM
- CC(C)c1c(-c2cnn(C3CCCC3O)c2)[nH]c2c(C#N)cnn2c1=O (centres unmarked) [Example 271] — within 1.5-fold, 24 nM
- CNS(=O)(=O)c1cccc(-c2[nH]c3c(C#N)cnn3c(=O)c2C(C)C)c1 [Example 273] — within 1.5-fold, 23 nM
- CC(C)c1c(-c2ccc(C(C)(C)O)cc2)[nH]c2c(C#N)cnn2c1=O [Example 274] — 2.2-fold higher, 73 nM
- CC(C)c1c(-c2ccnc(C(F)(F)F)c2)[nH]c2c(C#N)cnn2c1=O [Example 275] — within 1.5-fold, 34 nM
- CC(C)c1c(-c2ccc(Oc3ccccc3)nc2)[nH]c2c(C#N)cnn2c1=O [Example 276] — within 1.5-fold, 35 nM
- Cc1nc(-c2ccccc2)sc1-c1[nH]c2c(C#N)cnn2c(=O)c1C(C)C [Example 278] — 2.3-fold higher, 76 nM
- CC(C)c1c(-c2cc(N)cc(C#N)c2)[nH]c2c(C#N)cnn2c1=O [Example 279] — within 1.5-fold, 24 nM
- CC(C)c1c(-c2cnn(C3CCOC3)c2)[nH]c2c(C#N)cnn2c1=O (centres unmarked) [Example 280] — 2.2-fold lower, 15 nM
- CCNC(=O)c1cccc(-c2[nH]c3c(C#N)cnn3c(=O)c2C(C)C)c1 [Example 281] — within 1.5-fold, 32 nM
- CC(C)c1c(-c2cccc(CC(N)=O)c2)[nH]c2c(C#N)cnn2c1=O [Example 282] — 4.1-fold lower, 8 nM
- CC(C)c1c(-c2ccc(-c3ccccc3)nc2)[nH]c2c(C#N)cnn2c1=O [Example 283] — within 1.5-fold, 37 nM
- CC(C)c1c(-c2cnn(C3CCCOC3)c2)[nH]c2c(C#N)cnn2c1=O (centres unmarked) [Example 285] — within 1.5-fold, 23 nM
- COCC(C)n1cc(-c2[nH]c3c(C#N)cnn3c(=O)c2C(C)C)cn1 (centres unmarked) [Example 286] — within 1.5-fold, 30 nM
- CCOCCn1cc(-c2[nH]c3c(C#N)cnn3c(=O)c2C(C)C)cn1 [Example 287] — 1.5-fold lower, 22 nM
- CC(=O)N1CC=C(c2[nH]c3c(C#N)cnn3c(=O)c2C(C)C)C1 [Example 288] — 2.8-fold lower, 12 nM
- CC(=O)N1CCC=C(c2[nH]c3c(C#N)cnn3c(=O)c2C(C)C)C1 [Example 289] — within 1.5-fold, 35 nM
- CCC(=O)N1CCC=C(c2[nH]c3c(C#N)cnn3c(=O)c2C(C)C)C1 [Example 290] — within 1.5-fold, 39 nM
- CCC(=O)N1CC=C(c2[nH]c3c(C#N)cnn3c(=O)c2C(C)C)C1 [Example 291] — 1.7-fold higher, 55 nM
- CC(C)c1c(C2=CCNC2)[nH]c2c(C#N)cnn2c1=O [Example 293] — 1.7-fold lower, 19 nM
- CC(C)c1c(C2=CCCNC2)[nH]c2c(C#N)cnn2c1=O [Example 294] — 1.9-fold higher, 62 nM
- CC(C)c1c(C2=CCCN(C)C2)[nH]c2c(C#N)cnn2c1=O [Example 295] — within 1.5-fold, 39 nM
- C=CC(=O)N1CCC=C(c2[nH]c3c(C#N)cnn3c(=O)c2C(C)C)C1 [Example 296] — within 1.5-fold, 47 nM
- C=CC(=O)N1CC=C(c2[nH]c3c(C#N)cnn3c(=O)c2C(C)C)C1 [Example 297] — within 1.5-fold, 28 nM
- Cc1cc(-c2[nH]c3c(C#N)cnn3c(=O)c2C(C)C)cc(C)c1Cl [Example 298] — within 1.5-fold, 24 nM
- Cc1cc(-c2[nH]c3c(C#N)cnn3c(=O)c2C(C)C)ccc1C#N [Example 299] — within 1.5-fold, 25 nM
- CC(C)c1c(-c2ccc3c(c2)CCC3=O)[nH]c2c(C#N)cnn2c1=O [Example 300] — 1.8-fold lower, 18 nM
- CC(C)c1c(-c2ccc(C(F)(F)F)c(C(F)(F)F)c2)[nH]c2c(C#N)cnn2c1=O [Example 301] — 5.2-fold higher, 170 nM
- Cc1cc(-c2[nH]c3c(C#N)cnn3c(=O)c2C(C)C)ccc1C(F)(F)F [Example 302] — 1.6-fold higher, 52 nM
- CC(C)c1c(-c2cnn(Cc3cccc4ccsc34)c2)[nH]c2c(C#N)cnn2c1=O [Example 303] — 2.2-fold lower, 15 nM
- CC(C)c1c(-c2ccc(F)c(C(=O)NC3CCCCC3)c2)[nH]c2c(C#N)cnn2c1=O [Example 304] — 1.6-fold higher, 52 nM
- CC(C)c1c(-c2ccc(N3CCOCC3)cc2)[nH]c2c(C#N)cnn2c1=O [Example 305] — within 1.5-fold, 47 nM
- CC(C)c1c(-c2ccc(N3CCN(C(=O)OC(C)(C)C)CC3)cc2)[nH]c2c(C#N)cnn2c1=O [Example 306] — 6.1-fold higher, 200 nM
- Cc1cc(Cl)cc(-c2[nH]c3c(C#N)cnn3c(=O)c2C(C)C)c1 [Example 307] — within 1.5-fold, 25 nM
- CC(C)c1c(-c2cccc(S(C)(=O)=O)c2)[nH]c2c(C#N)cnn2c1=O [Example 308] — 1.9-fold lower, 17 nM
- CC(C)c1c(-c2ccc(NS(C)(=O)=O)cc2)[nH]c2c(C#N)cnn2c1=O [Example 309] — within 1.5-fold, 37 nM
- CC(C)c1c(-c2ccc(CN3CCOCC3)cc2)[nH]c2c(C#N)cnn2c1=O [Example 310] — 1.7-fold lower, 19 nM
- CC(C)c1c(-c2cccc(N3CCOCC3)c2)[nH]c2c(C#N)cnn2c1=O [Example 311] — within 1.5-fold, 28 nM

Reference: patent publication US10035801B2, “Pyrazolo compounds and uses thereof” (CONSTELLATION PHARMACEUTICALS, INC., priority 2013, dated 2018)
